The text below walks through data of ChEMBL document CHEMBL1275534, “Is 60 days of ciprofloxacin administration necessary for postexposure prophylaxis for Bacillus anthracis?” (Antimicrob Agents Chemother, 2008).

Converted amounts (≈) assume the structure as drawn.

The test system of test [1] is Bacillus anthracis. As to the kind of experiment: Effect on growth of pX01 and pX02 deficient Bacillus anthracis delta-Sterne infected in hollow-fiber pharmacodynamic model assessed as maximal vegetative plus spore phase population size at 500 mg every 12 hrs. It counts as functional.
The subject of test [2] is Bacillus anthracis. As to the kind of experiment: Antibacterial activity against pX01 and pX02 deficient Bacillus anthracis delta-Sterne after 24 hrs. The test is classed as functional.

As to `O=C(O)c1cn(C2CC2)c2cc(N3CCNCC3)c(F)cc2c1=O` [CIPROFLOXACIN], the log10CFU/ml in the test on Bacillus anthracis [1] is reported as 554300000. In addition, in the test on Bacillus anthracis [2], the MBC worked out at 1 µg/mL (≈ 3.02 µM).

For orientation: MBC means the smallest concentration meeting the test's criterion for killing. Higher therefore signals less potent killing.
